From US20100222371A1, “PREVENTION OF SURGICAL ADHESIONS” (CHILDREN'S MEDICAL CENTER CORPORATION, priority 2008, published 2010)
Where “and” joins values, the source holds several entries; their conditions need not be identical. Equal entries are not always repeated. Entries after “also recorded” stand apart in the source; their conditions may differ.

Columns and labels:
adhesion formation = test: Mouse adhesion model (silicone patch on abdominal wall, cecal abrasion), Example 1; type: in vivo, C57BL/6 mice
Procedure: Ten 7 week old male C57BL/6 mice were anesthetized with isoflurane and a midline laparotomy was performed. A 5.0 mm×5.0 mm piece of sterile silicone was attached to the right abdominal wall with 7.0 prolene sutures. The cecum then was gently rubbed with 2 cotton swabs to promote adhesion formation.
Two groups of 5 mice were treated with either 40 mg/kg/day of sunitinib in methylcellulose or methyl cellulose alone beginning the day before the adhesion operation and administered daily for 10 days. After 10 days of treatment, the animals were anesthetized with avertin, sacrificed, and the adhesions were scored.
The total adhesion score was the sum of the 3 individual scores. A minimum score was 0 and the maximum score was 12. Tenacity was rated as none (0), adhesions fell apart (1), lysed with traction (2), lysed with blunt dissection (3), and lysed with sharp dissection (4). Extent was measured as the percent of the patch covered by adhesion: 0% (0), <25% (1), 25 to 50% (2), 50 to 75% (3), and >75% (4). Cecal adhesions were graded as none (0), adhesions fell apart (1), lysed with traction (2), lysed with blunt dissection (3), and lysed with sharp dissection (4). The differences between the treated and untreated groups were significant (P=0.021).

[1] = tested on: intra-abdominal adhesion formation; test: Standard mouse adhesion model (cecal abrasion, silicone patch), Example 2, sacrifice on postoperative day 10 or 30; type: in vivo, C57BLJ6 mice; conditions: for Median cecal: median cecal adhesion score 0-4 (IQR); for Median extent / Median tenacity: median score 0-4 (IQR); for Total score: total median adhesion score 0-12 (IQR); for intra-abdominal adhesion formation compared with control: FIG. 1, FIG. 2; for long-term intra-abdominal adhesion formation compared with control: FIG. 3
Procedure: Thirty-seven 6- to 8-wk old C57BLJ6 mice (The Jackson Laboratory, Bar Harbor, Me.) were housed in cages of five mice with food and water ad libitum. The mice were acclimated to the facility for at least 72 h prior to surgery. A standard mouse adhesion model was performed as previously described (Chiang S C., et al (2000) J Pediatr Surg 35:189). After the mice were anesthetized with inhaled isoflurane, a midline incision was made, the cecum was eviscerated, rubbed gently with two cotton swabs, and then returned to anatomical position. A silicone patch (5.0×5.0×0.127 mm) (Bentec Medical, Woodland, Calif.) was sutured to the right abdominal wall, lateral to the epigastric vessels, with 7-0 nylon. One day prior to surgery, the mice were randomly treated with sunitinib (40 mg/kg in 100 methylcellulose) or methylcellulose control (100 uL). This dose was selected based on previous studies (Morimoto A M., (2004) Oncogene 23:1618; Takahashi H., et al (2006) J Ocul Pharmacol Ther 22:213; Pietras K., et al (2005) J Clin Ocol 23:939) Both groups were treated daily by orogastric gavage at the same dose for 10 days. On postoperative day 10, the mice were sacrificed and adhesions were scored by an observer who was blinded to the treatment groups, based on a previously described scoring system (Chiang S C., et al (2000), supra). The experiment was then repeated with sacrifice on postoperative day 30. The adhesion score was based on the extent of the patch covered by adhesions, the tenacity of adhesions to the patch, and the strength of cecal adhesions. Each criterion was scored from 0-4 and the sum of the three scores was the final adhesion score. The lowest and highest possible scores were 0 and 12, respectively. The tenacity of the adhesions to the patch was scored: 0=none, 1=adhesions fell apart, 2=lysed with traction, 3=lysed with blunt dissection, 4=lysed with sharp dissection. The extent of the patch covered was scored: 0=0%, 1=<25%, 2=25% to 50%, 3=50% to 75%, 4=>75%. The tenacity of cecal adhesions was scored: 0=none, 1=adhesions fell apart, 2=lysed with traction, 3=lysed with blunt dissection, 4=lysed with sharp dissection. Statistical analysis of adhesion scores was conducted using the Mann-Whitney rank sum test. The conventional 2-tailed P-value of 0.05 was used to establish significance. The results are presented as median adhesion score and interquartile range (IQR: 25th-75th percentile). The statistical program used was SigmaStat (SPSS, Chicago, Ill.).

adhesions of the uterus = test: Standard rabbit adhesion procedure (uterine horn abrasion), Example 3; type: in vivo, New Zealand white rabbits; conditions: for Extent of Uterus Covered: median percent involvement score 0-4 (IQR); for Extent of Uterus Covered / Total score / Adhesion Free Rabbits: 10 mg/kg daily for ten days; for Extent of Uterus Covered / Total score: p=0.003; for Total score: median total adhesion score (IQR); for Adhesion Free Rabbits: number of rabbits out of N = 8 surviving
Procedure: Twenty female New Zealand white rabbits underwent a standard rabbit adhesion procedure. The uterus and its bilateral horns were eviscerated, and abraded with the scalpel until punctate hemorrhages appeared. Collateral blood supply in the right mesosalpinx was tied off with 5-0 silk ties. The uterus was then returned to normal anatomic position. One day prior to surgery, the rabbits were randomly assigned to be treated with sunitinib at a dose of 10 mg/kg or saline control via orogastric gavage. Both groups were treated daily for a total of ten days. On postoperative day ten, the rabbits were sacrificed and their adhesions were scored by two observers who were blinded to their treatments. Adhesions are graded based on their tenacity (0=no adhesions, 1=adhesions fall apart, 2=adhesions lysed by traction, 3=adhesions lysed with blunt dissection, 4=adhesions lysed with sharp dissection) and the percent of uterus involved (0=none, 1=<25%, 2=25-50%, 3=51-75%, 4=>75%).

[2] = long-term, postoperative day 30, treated 10 d, n = 10, P=0.049
[3] = long-term, postoperative day 30, treated 10 d, n = 10, P=0.049, listed as sunitinib
[4] = postoperative day ten, N = 8, 10 mg/kg
[5] = postoperative day ten, N = 8, listed as Sunitinib + saline, 10 mg/kg

CCN(CC)CCNC(=O)c1c(C)[nH]c(/C=C2\C(=O)Nc3ccc(F)cc32)c1C [Sunitinib, sunitinib malate]
adhesion prevention vs vector only control (adhesion formation; 7 week old male C57BL/6 mice, Table 1 study, P=0.021): significantly prevention adhesion formation
comments (adhesion formation; observation on individual mouse at scoring, 40 mg/kg/day, 10 days): Looked good
Tenacity (adhesion formation; score of individual mouse, 0 (none) to 4 (lysed with sharp dissection), 40 mg/kg/day in methylcellulose, daily for 10 days from day before operation, scored after 10 days, listed as SU11248, 40 mg/kg/day): 1 and 0 (3×) and 2
Cecal adhesions (adhesion formation; score of individual mouse, 0 (none) to 4 (lysed with sharp dissection), 40 mg/kg/day, 10 days, listed as SU11248, 40 mg/kg/day): 2 (2×) and 0 (2×) and 1
Extent (adhesion formation; score of individual mouse, percent of patch covered: 0% (0), <25% (1), 25 to 50% (2), 50 to 75% (3), >75% (4), 40 mg/kg/day, 10 days, listed as SU11248, 40 mg/kg/day): 3 (2×) and 0 (3×)
Total (adhesion formation; total adhesion score of individual mouse, sum of 3 scores, 0-12, 40 mg/kg/day, 10 days, treated vs untreated P=0.021, listed as SU11248, 40 mg/kg/day): 6 and 2 and 0 and 1 and 5
Median cecal ([1]; long-term, postoperative day 30, treated 10 d, n = 10, P=0.225): 0 (IQR 0-2.0)
Median cecal ([1]; long-term, postoperative day 30, treated 10 d, n = 10, P=0.225, listed as sunitinib): 0.0 (IQR 0-2.0)
Median extent [1, 2]: 0 (IQR 0-1.0)
Median extent [1, 3]: 0.0 (IQR 0-1.0)
Median tenacity ([1]; long-term, postoperative day 30, treated 10 d from day prior to surgery, n = 10, P=0.011): 0 (IQR 0-0.5)
Median tenacity ([1]; long-term, postoperative day 30, treated 10 d from day prior to surgery, n = 10, P=0.011, listed as sunitinib): 0.0 (IQR 0.0-0.5)
Adhesion free mice ([1]; long-term, postoperative day 30, number of mice out of n = 10): 6
mice completely adhesion-free ([1]; long-term, postoperative day 30, six of 10 mice): 60%
Total score [1, 2]: 0 (IQR 0-3.0)
Total score [1, 3]: 0.0 (IQR 0.0-3.0)
intra-abdominal adhesion formation compared with control ([1]; postoperative day 10, P=0.002): significantly decreased
intra-abdominal adhesion formation compared with control ([1]; postoperative day 10, P=0.002, listed as sunitinib): adhesion free; also recorded: significantly decreased
Median cecal ([1]; postoperative day 10, 40 mg/kg daily gavage for 10 days, n = 18, P=0.002): 2.0 (IQR 0-2.0)
Median extent ([1]; postoperative day 10, 40 mg/kg daily gavage for 10 days, n = 18, P vs control 0.091 (Table 3), 0.91, 40 mg/kg): 0 (IQR 0-2.0)
Median extent ([1]; postoperative day 10, 40 mg/kg daily gavage for 10 days, n = 18, P vs control 0.091 (Table 3), 0.91, listed as sunitinib, 40 mg/kg): 0.0 (IQR 0-2.0)
Median tenacity ([1]; postoperative day 10, 40 mg/kg daily orogastric gavage for 10 days, n = 18, P vs control 0.068 (Table 3), 0.68, 40 mg/kg): 0 (IQR 0-1.0)
Median tenacity ([1]; postoperative day 10, 40 mg/kg daily orogastric gavage for 10 days, n = 18, P vs control 0.068 (Table 3), 0.68, listed as sunitinib, 40 mg/kg): 0.0 (IQR 0.0-1.0)
Adhesion free mice ([1]; postoperative day 10, number of mice out of n = 18, 40 mg/kg daily for 10 days): 6
mice completely adhesion-free ([1]; postoperative day 10, six of 18 mice, 40 mg/kg daily for 10 days): 33.3%
Total score ([1]; postoperative day 10, 40 mg/kg daily gavage for 10 days, n = 18, P=0.002, 40 mg/kg): 2.0 (IQR 0-5.0)
Total score ([1]; postoperative day 10, 40 mg/kg daily gavage for 10 days, n = 18, P=0.002, listed as sunitinib, 40 mg/kg): 2.0 (IQR 0.0-5.0)
long-term intra-abdominal adhesion formation compared with control ([1]; postoperative day 30, P=0.049): significantly decreased
long-term intra-abdominal adhesion formation compared with control ([1]; postoperative day 30, P=0.049, listed as sunitinib): decreased
abdominal cavity adhesions in micrograph (adhesions of the uterus; FIG. 4, treated rabbit): free from abdominal cavity adhesions
Extent of Uterus Covered (adhesions of the uterus; [4]): 1.0 (IQR 0-1.0; range 0-1)
Extent of Uterus Covered (adhesions of the uterus; [5]): 1.0
Tenacity to Uterus (adhesions of the uterus; median score 0-4 (IQR), 10 mg/kg daily orogastric gavage for ten days from day prior to surgery, postoperative day ten, N = 8, p=0.004, listed as Sunitinib + saline, 10 mg/kg): 1.0
Total score (adhesions of the uterus; [4]): 2 (IQR 0-2.75; range 0-3)
Total score (adhesions of the uterus; [5]): 2.0
Adhesion Free Rabbits (adhesions of the uterus; postoperative day ten, 10 mg/kg): Three of the eight
Adhesion Free Rabbits (adhesions of the uterus; postoperative day ten, listed as Sunitinib + saline, 10 mg/kg): 3
